Earlier results as cited in patent US9370164B2, “Breeding, production, processing and use of specialty Cannabis” (Biotech Institute LLC, priority 2013, dated 2016).
Where two headings read alike, the source gives them in different places.

Tests used:
[1] = for Pharmacological Action: Analgesic / Pharmacological Action: Anti-spasmodic: indications: MS; for Pharmacological Action: Analgesic: Post-operative pain, Migraine, Neuropathic pain, Sciatica; for Pharmacological Action: Anti-inflammatory: indications: Pain, Chron's, Arthritis; for Pharmacological Action: Anti-inflammatory / Pharmacological Action: Immunosuppressive / Pharmacological Action: Neuroprotective: MS; for Pharmacological Action: Anti-emetic: indication: CIE; for Pharmacological Action: Antidepressant: indication: Depression; for Pharmacological Action: Intestinal Anti-prokinetic: indication: Diarrhea; for Pharmacological Action: Anti-epileptic: indication: Epilepsy; for Pharmacological Action: Vasorelaxant: indication: Glaucoma; for Pharmacological Action: Sedative: indication: Sleep disorders; for Pharmacological Action: Immunosuppressive: indications: Allergies, RA, IBS; for Pharmacological Action: Anti-spasmodic: Spinal cord injury, Cerebral palsy; for Pharmacological Action: Anxiolytic: indications: Panic Disorder, Social Anxiety Disorder, Generalized Anxiety Disorder, PTSD; for Pharmacological Action: Neuroprotective: indications: Parkinson's, Alzheimer's, Stroke; for Pharmacological Action: Muscle relaxant: indication: MS; for Pharmacological Action: Bronchodialator: indications: Asthma, Sleep-related breathing disorders
[2] = for Proposed mechanism, Analgesic: post-operative pain

| Structure (SMILES) | Pharmacological Action: Analgesic [1] | Pharmacological Action: Anti-inflammatory [1] | Pharmacological Action: Antidepressant [1] | Pharmacological Action: Anti-epileptic [1] | Pharmacological Action: Sedative [1] | Pharmacological Action: Anxiolytic [1] | Proposed mechanism, Anti-inflammatory [2] | also measured |
| --- | --- | --- | --- | --- | --- | --- | --- | --- |
| CCCCCc1cc(O)c2c(c1)OC(C)(CCC=C(C)C)C=C2 (stereo not drawn) [CBC] | ✓ | ✓ |  |  |  |  |  |  |
| C=C(C)[C@@H]1CCC(C)=C[C@H]1c1c(O)cc(CCCCC)cc1O [CBD] | ✓ | ✓ | ✓ | ✓ | ✓ | ✓ |  | Pharmacological Action: Anti-emetic [1]: ✓; Pharmacological Action: Intestinal Anti-prokinetic [1]: ✓; Pharmacological Action: Vasorelaxant [1]: ✓; Pharmacological Action: Immunosuppressive [1]: ✓; Pharmacological Action: Anti-spasmodic [1]: ✓; Pharmacological Action: Neuroprotective [1]: ✓; Proposed mechanism, Analgesic [2]: (+)TRPA1; Proposed mechanism, Anti-epileptic [2]: (+)5HT1A; Proposed mechanism, Anti-psychotic ([2]; Anti-psychotic): (+)TRPV1; Proposed mechanism, Anxiolytic ([2]; panic disorder): (+)5HT1A; Proposed mechanism, Anxiolytic ([2]; social anxiety disorder): (+)CB1; Proposed mechanism, Intestinal Anti-prokinetic ([2]; Intestinal Anti-prokinetic): (−)Ca1; Proposed mechanism, Vasorelaxant [2]: (+)PPARg |
| CCCCCc1cc(O)c(C/C=C(\C)CCC=C(C)C)c(O)c1 [CBG] | ✓ |  | ✓ | ✓ |  | ✓ |  | Pharmacological Action: Muscle relaxant [1]: ✓; Pharmacological Action: Anti-spasmodic [1]: ✓; Proposed mechanism, Analgesic [2]: (+)TRPA1; Proposed mechanism, Anti-proliferative [2]: (−)TRPM8; Proposed mechanism, Antidepressant ([2]; Antidepressant): (−)5HT1A |
| CCCCCc1cc(O)c2c(c1)OC(C)(C)c1ccc(C)cc1-2 [CBN] | ✓ |  |  |  | ✓ |  |  |  |
| C=C(C)[C@H]1CC=C(C)CC1 [Limonene] |  |  | ✓ |  |  | ✓ |  |  |
| C=CC(C)(O)CCC=C(C)C (stereo not drawn) [Linalool] | ✓ |  |  | ✓ | ✓ | ✓ |  | Proposed mechanism, Anti-epileptic [2]: anti-Glu |
| CCCc1cc(O)c2c(c1)OC(C)(C)[C@@H]1CCC(C)=C[C@@H]21 [THCV] |  |  |  | ✓ |  |  |  | Proposed mechanism, Anti-epileptic [2]: (−)CB1 |
| CCCCCc1cc(O)c2c(c1)OC(C)(C)[C@@H]1CCC(C)=C[C@@H]21 [THC] | ✓ | ✓ | ✓ | ✓ | ✓ | ✓ | (+)PPARg | Pharmacological Action: Anti-emetic [1]: ✓; Pharmacological Action: Intestinal Anti-prokinetic [1]: ✓; Pharmacological Action: Vasorelaxant [1]: ✓; Pharmacological Action: Muscle relaxant [1]: ✓; Pharmacological Action: Immunosuppressive [1]: ✓; Pharmacological Action: Appetite Stimulant ([1]; indications: Anorexia, Cachexia, AIDS wasting): ✓; Pharmacological Action: Bronchodialator [1]: ✓; Pharmacological Action: Anti-spasmodic [1]: ✓; Pharmacological Action: Neuroprotective [1]: ✓; Proposed mechanism, Anti-proliferative [2]: (−)TRPM8; Proposed mechanism, Appetite Stimulant ([2]; Appetite Stimulant): (+)PPARg; Proposed mechanism, Vasorelaxant [2]: (+)PPARg |
| CC1=CCC2CC1C2(C)C (stereo not drawn) [a-pinene] |  | ✓ |  |  |  |  | PGE1 | Pharmacological Action: Bronchodialator [1]: ✓ |
| C=C1CC/C=C(\C)CC[C@@H]2[C@@H]1CC2(C)C [b-caryophyl.] |  | ✓ |  |  |  |  | PGE1 |  |
| C=CC(=C)CCC=C(C)C [b-myrcene] | ✓ | ✓ |  |  | ✓ |  | PGE2 |  |
